In brackets after ≈: the same amount, converted by molar mass.
What was measured:
Staphylococcus aureus [1] = assay: Drug resistance study, 20 generations at sub inhibitory concentration; format: cell-based; conditions: 20 passages at sublethal concentration
Protocol: After Staphylococcus aureus was cultured for 5 h, the bacteria were diluted 1000 times with fresh TSB and the MIC of Ru-3 was measured. The bacterial solution grown at the sub inhibitory concentration of compound Ru-3 was inoculated into fresh TSB medium for 5 h, then the MIC was measured, and the above procedure was repeated for 20 generations. Ampicillin was used as the control.

Staphylococcus aureus [2] = assay: Checkerboard assay with antibiotics; format: cell-based; conditions: for MIC of antibiotics: antibiotic alone, S. aureus; for FICI: combination of the antibiotic with Ru-3, S. aureus
Protocol: Firstly, the MIC of all selected antibiotics was determined by the above method. Staphylococcus aureus was cultured overnight and diluted 1000 times with fresh TSB. Then 200 μL the diluted bacterial suspension, 25 μL Ru-3 of gradient concentrations and 25 μL antibiotics of gradient concentrations were mixed in 96 well plates and further cultured at 37°C for 20 h. MIC values of single drug and the best combination effect (combination of MICA and MICB) were measured. Graphpad prism software was used to draw the checkerboard map and isoline map.

Galleria mellonella = assay: Toxicity in insect model Galleria mellonella; format: in vivo; conditions: larvae, 120 h
Protocol: Based on the excellent antibacterial effect of Ru-3 in vitro, its biosafety was further evaluated. Firstly, the hemolytic activity of ruthenium complexes on rabbit red blood cells was measured to study their toxicity. […] In view of its good compatibility with mammalian red blood cells, the toxicity of Ru-3 to eukaryotes was also studied. Herein, Ru-3 was tested with Gallery melonella larvae. […] When the concentration of Ru-3 was 64 mg kg^−1, the survival rate was still 75%.
FIGURE 15 Test results of Ru compounds toxicity (A) % hemolysis at 256 μg ml^−1 of Ru compounds. (B) Kaplan-Meier survival curves. […] The larvae were incubated at 37.5°C and live/dead scores were conducted at 120 h (C) H&E staining images of the infected tissues with different treatments.

Staphylococcus aureus [3] = assay: MIC by microdilution in TSB broth; format: cell-based; conditions: 20 h
Protocol: Antibacterial activity was evaluated by measuring MIC (minimum inhibitory concentration) and MBC (minimum bactericidal concentration) values. The MIC value was measured by the microdilution method using TSB broth with 96 well plates ([Carlsen et al., 1981]) and the MBC value was determined by LB plates. In brief, the overnight cultured bacteria were 1: 1000 diluted with fresh medium to get a bacterial suspension. After incubation at 37°C for 20 h, the growth of bacteria is monitored by observing the turbidity of the culture. The bacterial solution was diluted as above method and the complexes were incubated with bacterial solution for 2 h. Then 100 μL bacterial solution was taken for plate coating. The Staphylococcus aureus growth inhibition trend in the presence of complexes was obtained. The MBC values of complexes were determined by LB plates after culturing in the same method for 24 h. All experiments were controlled with sterile water and repeated in parallel at least three times.

Staphylococcus aureus [4] = assay: Nucleic acid leakage, 260 nm absorbing material; format: cell-based; conditions: 100 μg/ml, 2 h
Protocol: To verify the membrane damage, the loss of 260 nm absorbing material was carried out ([Yu et al., 2021]). Briefly, overnight cultured bacteria were diluted 1:1000 in fresh TSB and shaken at 37°C for about 5 h until the exponential stage was reached. The supernatant was removed by centrifugation, then the bacteria were resuspended to OD600 = 1 with PBS, which was further treated with Ru-3 or polymyxin B and centrifuged after 2 h to precipitate bacterial cells. Subsequently, the loss of 260 nm absorbing material, including the release of DNA and RNA in the filtrate, was measured at 260 nm.

rabbit red blood cells = assay: Hemolytic activity on rabbit red blood cells; format: cell-based; conditions: 37°C, 30 min
Protocol: Obtain red blood cells from fresh sterile rabbit blood and rabbit blood was washed three times with PBS. Ru(II) complexes in 950 µL phosphoric acid buffer (PBS) of different concentrations and 50 μL red blood cells were added into a 1.5 ml sample tube, incubated at 37°C for 30 min. The negative control was red blood cell suspension containing only PBS, and the positive control was PBS containing 0.1% (V/V) Triton X-100. After incubating the mixture was centrifugated (2000 rpm for 2 min) and the supernatant (200 μL) was transfered to another 96 well plate. Finally, the hemolysis rate was calculated by measuring the absorbance at 540 nm.

[5] = Partition coefficient, shake flask 1-octanol/PBS; format: physicochemical
Protocol: The partition coefficients of all complexes were determined by standard shake flask method in 1-octanol and buffer liquid system ([Yang et al., 2021]). In brief, the octanol/water partition coefficient is obtained by the incubation of 2 ml of 25 μg ml^−1 ruthenium complex 1-octanol and 2 ml PBS samples. After shaking the solution for 6 h, the samples were stood for 2 h. The absorbance of octanol complex at 282 nm before and after oscillation was measured. The absorbance of 1-octanol before oscillation minus the absorbance of 1-octanol after oscillation is the absorbance of the complex in water. Each experiment was repeated three times. The partition coefficient is reported as the number of octanol divided by the number of water.

Compound	MIC of antibiotics (Staphylococcus aureus [2]) [µg/mL]	FICI (Staphylococcus aureus [2])	MIC (Staphylococcus aureus [3]; S. aureus, 37°C) [µg/mL]	further results
CC1(C)S[C@@H]2[C@H](NC(=O)[C@H](N)c3ccccc3)C(=O)N2[C@H]1C(=O)O [Ampicillin, reference compound]	0.39	0.38		increase of MIC value after 20 generations (Staphylococcus aureus [1]): more than 1024 times; Kaplan-Meier survival curve (Galleria mellonella): coincides with control’s curve
O=C(N[C@H](CO)[C@H](O)c1ccc([N+](=O)[O-])cc1)C(Cl)Cl [Chloramphenicol]	6.25	0.50		
CNC(C)C1CCC(N)C(OC2C(N)CC(N)C(OC3OCC(C)(O)C(NC)C3O)C2O)O1 (centres unmarked) [Gentamicin]	6.25	0.38		
NC[C@H]1O[C@H](O[C@H]2[C@H](O)[C@@H](O[C@H]3O[C@H](CO)[C@@H](O)[C@H](N)[C@H]3O)[C@H](N)C[C@@H]2N)[C@H](O)[C@@H](O)[C@@H]1O [Kanamycin]	50.00	0.38		
Cc1ccc(N(c2ccc(C)cc2)c2ccc(-c3nc4c5cccnc5c5ncccc5c4[nH]3)cc2)cc1 [PMA]			>256	
O.O.O.[Cl][Ru]([Cl])[Cl] [RuCl3∙3H2O]			>256	
CN(C)[C@@H]1C(O)=C(C(N)=O)C(=O)[C@@]2(O)C(O)=C3C(=O)c4c(O)cccc4[C@@](C)(O)[C@H]3C[C@@H]12 [Tetracycline]	0.39	0.50		
CN[C@H](CC(C)C)C(=O)N[C@H]1C(=O)N[C@@H](CC(N)=O)C(=O)N[C@H]2C(=O)N[C@H]3C(=O)N[C@H](C(=O)N[C@H](C(=O)O)c4cc(O)cc(O)c4-c4cc3ccc4O)[C@H](O)c3ccc(c(Cl)c3)Oc3cc2cc(c3O[C@@H]2O[C@H](CO)[C@@H](O)[C@H](O)[C@H]2O[C@H]2C[C@](C)(N)[C@H](O)[C@H](C)O2)Oc2ccc(cc2Cl)[C@H]1O [Vancomycin]	2	1.00		MIC (Staphylococcus aureus [3]; Staphylococcus aureus): 2 µg/mL (≈ 1.38 µM)
Polymyxin B [reference compound]				Δ% Nucleic acid leakage (Staphylococcus aureus [4]): 23%
[Ru(bpy)2PMA] (PF6)2 [Ru-2]			8	% Hemolysis at 256 μg/ml (rabbit red blood cells): 16%; LgP [5]: 0.97; logD o/w [5]: ca. 0.9681
[Ru(dmob)2PMA] (PF6)2 [Ru-1]			16	% Hemolysis at 256 μg/ml (rabbit red blood cells): 8%; LgP [5]: 1.14; logD o/w [5]: ca. 1.1445

— paper PMC9589286, “Ruthenium polypyridine complexes with triphenylamine groups as antibacterial agents against Staphylococcus aureus with membrane-disruptive mechanism” (Frontiers in Chemistry, 2022)
